Tests used:
Assay in all cases: relative viability (nuclei count vs DMSO), 5 days (fraction); higher = more cells survive
QS11 + Palbociclib = compound: C1CC2=C(C1)C=C(C=C2)OC3=NC(=C4C(=N3)N(C=N4)CC5=CC=C(C=C5)C6=CC=CC=C6)N[C@@H](CC7=CC=CC=C7)CO [QS11] + CC(=O)c1c(C)c2cnc(Nc3ccc(N4CCNCC4)cn3)nc2n(C2CCCC2)c1=O [Palbociclib] (partner 0.5 µM)
How it was run: (§1)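 Relative viability divides the nuclei count in treated wells by that in vehicle wells. Lung cancer cell lines were seeded in 1536-well plates, dosed by pin tool the next day, and fixed and stained after 5 days in one step with final 0.05% Triton X-100, 1% formaldehyde and 1 ug/ml Hoechst. Dosing was a single drug or a fixed anchor-drug dose plus five library-drug doses (not always all listed) in √10 steps, and values are medians of duplicate plates imaged at 4×.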

QS11 + Crizotinib = compound: C1CC2=C(C1)C=C(C=C2)OC3=NC(=C4C(=N3)N(C=N4)CC5=CC=C(C=C5)C6=CC=CC=C6)N[C@@H](CC7=CC=CC=C7)CO [QS11] + C[C@@H](Oc1cc(-c2cnn(C3CCNCC3)c2)cnc1N)c1c(Cl)ccc(F)c1Cl [Crizotinib] (partner 1 µM)
How it was run: as §1

[1] = compound: C[As](C)SC[C@H](NC(=O)CC[C@H](N)C(=O)O)C(=O)NCC(=O)O [Darinaparsin] + CC(=O)c1c(C)c2cnc(Nc3ccc(N4CCNCC4)cn3)nc2n(C2CCCC2)c1=O [Palbociclib] (partner 0.5 µM)
How it was run: as §1

QS11 + Bortezomib = compound: C1CC2=C(C1)C=C(C=C2)OC3=NC(=C4C(=N3)N(C=N4)CC5=CC=C(C=C5)C6=CC=CC=C6)N[C@@H](CC7=CC=CC=C7)CO [QS11] + CC(C)C[C@H](NC(=O)[C@H](Cc1ccccc1)NC(=O)c1cnccn1)B(O)O [Bortezomib] (partner 0.002 µM)
How it was run: as §1

Darinaparsin + Alpelisib = compound: C[As](C)SC[C@H](NC(=O)CC[C@H](N)C(=O)O)C(=O)NCC(=O)O [Darinaparsin] + Cc1nc(NC(=O)N2CCC[C@H]2C(N)=O)sc1-c1ccnc(C(C)(C)C(F)(F)F)c1 [Alpelisib] (partner 2 µM)
How it was run: as §1

Work on LCLC-97TM1 yielded a relative viability (QS11 + Palbociclib; first compound 0.253 µM) of 0.204, a relative viability (QS11 + Palbociclib; first compound 2.53 µM) of 0.213 and a relative viability (QS11 + Palbociclib; first compound 8 µM) of 0.277. For the same cell line, the relative viability (QS11 + Crizotinib; first compound 0.08 µM) was 0.275, the relative viability (QS11 + Crizotinib; first compound 0.253 µM) was 0.351 and the relative viability (QS11 + Crizotinib; first compound 0.8 µM) was 0.392. The relative viability (QS11 + Crizotinib; first compound 2.53 µM) was 0.403, the relative viability (QS11 + Crizotinib; first compound 8 µM) was 0.355 and the relative viability ([1]; first compound 0.08 µM) was 0.317. For the same cell line, the relative viability ([1]; first compound 0.8 µM) was 0.2, the relative viability ([1]; first compound 2.53 µM) was 0.237 and the relative viability ([1]; first compound 8 µM) was 0.251. The relative viability (QS11 + Bortezomib; first compound 0.253 µM) was 0.971, the relative viability (QS11 + Bortezomib; first compound 0.8 µM) was 0.611 and the relative viability (QS11 + Bortezomib; first compound 2.53 µM) was 0.537. It also gave a relative viability (QS11 + Bortezomib; first compound 8 µM) of 1.18, a relative viability (Darinaparsin + Alpelisib; first compound 0.08 µM) of 0.244 and a relative viability (Darinaparsin + Alpelisib; first compound 0.8 µM) of 0.237. The relative viability (Darinaparsin + Alpelisib; first compound 2.53 µM) was 0.19 and the relative viability (Darinaparsin + Alpelisib; first compound 8 µM) was 0.26.

From the supplement of paper PMC10307832
